In PubChem BioAssay (NCI):
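Method: 48-hour compound exposure of cells in 96-well plates, five concentrations, linear interpolation of endpoints. TGI is the concentration that stops growth completely.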

Key:
Experiment in all cases: DTP human tumour cell line panel, 48 h
NCI/ADR-RES ovarian = tested on: NCI/ADR-RES ovarian
SK-MEL-28 melanoma = tested on: SK-MEL-28 melanoma
SK-OV-3 ovarian = tested on: SK-OV-3 ovarian
OVCAR-8 ovarian = tested on: OVCAR-8 ovarian
HOP-62 NSCLC = tested on: HOP-62 NSCLC
HCT-15 colon = tested on: HCT-15 colon
MDA-N = tested on: MDA-N
A549 NSCLC = tested on: A549 NSCLC
HOP-92 NSCLC = tested on: HOP-92 NSCLC
DU-145 prostate = tested on: DU-145 prostate
SF-268 CNS = tested on: SF-268 CNS
MDA-MB-231 breast = tested on: MDA-MB-231 breast
MDA-MB-435 = tested on: MDA-MB-435
HT29 colon = tested on: HT29 colon
A498 renal = tested on: A498 renal
OVCAR-5 ovarian = tested on: OVCAR-5 ovarian
HS 578T breast = tested on: HS 578T breast
EKVX NSCLC = tested on: EKVX NSCLC
NCI-H226 lung = tested on: NCI-H226 lung
MCF7 breast = tested on: MCF7 breast
SNB-75 CNS = tested on: SNB-75 CNS
NCI-H460 lung = tested on: NCI-H460 lung
OVCAR-3 ovarian = tested on: OVCAR-3 ovarian
CAKI-1 renal = tested on: CAKI-1 renal
SF-539 CNS = tested on: SF-539 CNS
SK-MEL-2 melanoma = tested on: SK-MEL-2 melanoma
UACC-62 melanoma = tested on: UACC-62 melanoma
M14 melanoma = tested on: M14 melanoma
MOLT-4 leukemia = tested on: MOLT-4 leukemia
U251 CNS = tested on: U251 CNS
SW-620 colon = tested on: SW-620 colon
RPMI-8226 leukemia = tested on: RPMI-8226 leukemia
SNB-19 CNS = tested on: SNB-19 CNS
CCRF-CEM leukemia = tested on: CCRF-CEM leukemia
PC-3 prostate = tested on: PC-3 prostate
BT-549 breast = tested on: BT-549 breast
OVCAR-4 ovarian = tested on: OVCAR-4 ovarian
UACC-257 melanoma = tested on: UACC-257 melanoma
SN12C renal = tested on: SN12C renal
SF-295 CNS = tested on: SF-295 CNS
COLO 205 colon = tested on: COLO 205 colon
ACHN renal = tested on: ACHN renal
KM12 colon = tested on: KM12 colon
786-0 renal = tested on: 786-0 renal
NCI-H23 lung = tested on: NCI-H23 lung
LOX IMVI melanoma = tested on: LOX IMVI melanoma
NCI-H522 lung = tested on: NCI-H522 lung
HL-60(TB) leukemia = tested on: HL-60(TB) leukemia
SK-MEL-5 melanoma = tested on: SK-MEL-5 melanoma
HCC-2998 colon = tested on: HCC-2998 colon
UO-31 renal = tested on: UO-31 renal
MALME-3M melanoma = tested on: MALME-3M melanoma
K-562 leukemia = tested on: K-562 leukemia
IGROV1 ovarian = tested on: IGROV1 ovarian
RXF 393 renal = tested on: RXF 393 renal
HCT-116 colon = tested on: HCT-116 colon
TK-10 renal = tested on: TK-10 renal

SMILES: O=C1c2cccc3cc([N+](=O)[O-])cc(c23)C(=O)N1CCCN1CCN(CCCNc2ccc3ncn4c5ccccc5c(=O)c2c34)CC1
- TGI (NCI/ADR-RES ovarian): 0.0864 µM
- TGI (SK-MEL-28 melanoma): > 25.5 µM
- TGI (SK-OV-3 ovarian): > 20 µM
- TGI (OVCAR-8 ovarian): 0.173 µM
- TGI (HOP-62 NSCLC): 1.74 µM
- TGI (HCT-15 colon): > 50 µM
- TGI (MDA-N): 0.579 µM
- TGI (A549 NSCLC): > 50 µM
- TGI (HOP-92 NSCLC): > 50 µM
- TGI (DU-145 prostate): > 19.9 µM
- TGI (SF-268 CNS): 16.1 µM
- TGI (MDA-MB-231 breast): 0.62 µM
- TGI (MDA-MB-435): > 50 µM
- TGI (HT29 colon): < 0.005 µM
- TGI (A498 renal): 5.67 µM
- TGI (OVCAR-5 ovarian): > 16.9 µM
- TGI (HS 578T breast): 8.75 µM
- TGI (EKVX NSCLC): > 50 µM
- TGI (NCI-H226 lung): < 0.005 µM
- TGI (MCF7 breast): < 0.005 µM
- TGI (SNB-75 CNS): 0.187 µM
- TGI (NCI-H460 lung): > 50 µM
- TGI (OVCAR-3 ovarian): > 17.2 µM
- TGI (CAKI-1 renal): 0.00674 µM
- TGI (SF-539 CNS): 0.0871 µM
- TGI (SK-MEL-2 melanoma): > 29 µM
- TGI (UACC-62 melanoma): > 50 µM
- TGI (M14 melanoma): 0.0785 µM
- TGI (MOLT-4 leukemia): > 50 µM
- TGI (U251 CNS): 0.00861 µM
- TGI (SW-620 colon): > 50 µM
- TGI (RPMI-8226 leukemia): > 50 µM
- TGI (SNB-19 CNS): > 50 µM
- TGI (CCRF-CEM leukemia): 5 µM
- TGI (PC-3 prostate): > 17.1 µM
- TGI (BT-549 breast): 0.0361 µM
- TGI (OVCAR-4 ovarian): > 50 µM
- TGI (UACC-257 melanoma): > 50 µM

SMILES: COc1ccc(Nc2nnc(CCCCCCCCc3nnc(Nc4ccc(OC)cc4)o3)o2)cc1
- TGI (SN12C renal): > 100 µM
- TGI (NCI/ADR-RES ovarian): > 100 µM
- TGI (SF-295 CNS): > 100 µM
- TGI (COLO 205 colon): > 100 µM
- TGI (SK-MEL-28 melanoma): > 100 µM
- TGI (SK-OV-3 ovarian): > 100 µM
- TGI (OVCAR-8 ovarian): > 100 µM
- TGI (HOP-62 NSCLC): > 100 µM
- TGI (ACHN renal): > 100 µM
- TGI (HCT-15 colon): > 100 µM
- TGI (MDA-N): > 100 µM
- TGI (KM12 colon): > 100 µM
- TGI (A549 NSCLC): > 100 µM
- TGI (HOP-92 NSCLC): > 100 µM
- TGI (DU-145 prostate): > 100 µM
- TGI (SF-268 CNS): > 100 µM
- TGI (MDA-MB-231 breast): > 100 µM
- TGI (786-0 renal): > 100 µM
- TGI (MDA-MB-435): > 100 µM
- TGI (HT29 colon): > 100 µM
- TGI (NCI-H23 lung): > 100 µM
- TGI (LOX IMVI melanoma): > 100 µM
- TGI (NCI-H522 lung): > 100 µM
- TGI (HL-60(TB) leukemia): > 100 µM
- TGI (A498 renal): > 100 µM
- TGI (OVCAR-5 ovarian): > 100 µM
- TGI (EKVX NSCLC): > 100 µM
- TGI (SK-MEL-5 melanoma): > 100 µM
- TGI (NCI-H226 lung): > 100 µM
- TGI (MCF7 breast): > 100 µM
- TGI (SNB-75 CNS): > 100 µM
- TGI (NCI-H460 lung): > 100 µM
- TGI (OVCAR-3 ovarian): > 100 µM
- TGI (HCC-2998 colon): > 100 µM
- TGI (UO-31 renal): > 100 µM
- TGI (CAKI-1 renal): > 100 µM
- TGI (SF-539 CNS): > 100 µM
- TGI (SK-MEL-2 melanoma): > 100 µM
- TGI (M14 melanoma): > 100 µM
- TGI (MOLT-4 leukemia): > 100 µM
- TGI (U251 CNS): > 100 µM
- TGI (SW-620 colon): > 100 µM
- TGI (MALME-3M melanoma): > 100 µM
- TGI (SNB-19 CNS): > 100 µM
- TGI (CCRF-CEM leukemia): > 100 µM
- TGI (PC-3 prostate): > 100 µM
- TGI (K-562 leukemia): > 100 µM
- TGI (BT-549 breast): > 100 µM
- TGI (IGROV1 ovarian): > 100 µM
- TGI (OVCAR-4 ovarian): > 100 µM
- TGI (RXF 393 renal): > 100 µM
- TGI (UACC-257 melanoma): > 100 µM
- TGI (HCT-116 colon): > 100 µM
- TGI (TK-10 renal): > 100 µM
